Laboratory results: patent US9321722B2, “Bis-indolic derivatives, their uses in particular as antibacterials” (UNIVERSITE JOSEPH FOURIER, priority 2011, dated 2016)
Values after ≈ are worked out from the molar mass of the structure shown. Where a name gives a salt, the structure may show the parent alone. Read-outs that look alike come from different tables or passages of the source.

Legend:
[1] = test system: KB (human mouth carcinoma); assay: In vitro cytotoxicity; type: cell-based; settings: read-out: % of cellular growth inhibition
Experimental: (§1) In vitro cytotoxicity was assayed on three cell lines—KB (human mouth carcinoma), MCR5 (human lung fibroblast) and HCT116 (human colon tumor). Results are presented in table III as % of cellular growth inhibition in presence of 10^−5 M and 10^−6 M of the tested bis-indolic derivatives.

[2] = test system: MRC5 (human lung fibroblast); assay: In vitro cytotoxicity; type: cell-based; settings: MRC5, read-out: % of cellular growth inhibition
Experimental: as §1

[3] = test system: HCT116 (human colon tumor); assay: In vitro cytotoxicity; type: cell-based; settings: HCT-116, read-out: % of cellular growth inhibition
Experimental: as §1

[4] = test system: S. aureus ATCC 9144; assay: MIC microdilution (Table I-1); type: cell-based, Staphylococcus aureus
Experimental: (§2) The microdilution method recommended by the Clinical and Laboratory Standard Institute [M07-A8, Vol. 29, N^o 2] was used. The activity of indolic compounds was tested against 29 bacterial strains belonging to 17 different species and 12 different genera (Staphylococcus, Streptococcus, Enterococcus, Listeria, Bacillus, Haemophilus, Escherichia, Klebsiella, Enterobacter, Serratia, Pseudomonas, and Acinetobacter). Bacterial inocula were prepared in Mueller Hinton broth (MH2, bioMerieux, Marcy L'Etoile, France), supplemented with 10% sheep blood for fastidious species (i.e., Streptococcus pneumoniae and Haemophilus influenzae). They were dispensed in 96 well microtiter plates (5×10^5 CFU/ml of final inoculum). Indolic compounds were added to the wells as to obtain two-fold serial concentrations (0.50-128 mg/L of final concentrations). Plates were incubated at 37° C. in ambient air, or at 37° C. in 5% CO2 enriched atmosphere for fastidious species. […] Drug-free cultures served as growth controls. Cultures receiving gentamicin, ciprofloxacin or cefotaxime served as positive controls.

[5] = test system: S. aureus CIP 65.25 (MRSA); assay: MIC microdilution (Table I-1); type: cell-based, Staphylococcus aureus; settings: read after 18 hours
Experimental: as §2

[6] = test system: S. aureus ATCC 33592 (MRSA); assay: MIC microdilution (Table I-1); type: cell-based, Staphylococcus aureus; settings: read after 18 hours
Experimental: as §2

[7] = test system: S. aureus ATCC 29213; assay: MIC microdilution (Table I-1); type: cell-based, Staphylococcus aureus
Experimental: as §2

[8] = test system: S. aureus CIP 103428; assay: MIC microdilution (Table I-1); type: cell-based, Staphylococcus aureus
Experimental: as §2

[9] = test system: S. aureus CIP 65.6; assay: MIC microdilution (Table I-1); type: cell-based, Staphylococcus aureus
Experimental: as §2

[10] = test system: S. aureus ATCC 6538; assay: MIC microdilution (Table I-1); type: cell-based, Staphylococcus aureus
Experimental: as §2

[11] = test system: S. aureus ATCC 106414 (VISA); assay: MIC microdilution (Table I-1); type: cell-based, Staphylococcus aureus; settings: read after 18 hours
Experimental: as §2

[12] = test system: S. aureus SA-1199B; assay: MIC microdilution (Table I-1); type: cell-based, Staphylococcus aureus
Experimental: as §2

[13] = test system: S. epidermidis CIP 103627; assay: MIC microdilution (Table I-1); type: cell-based, Staphylococcus epidermidis
Experimental: as §2

[14] = test system: S. epidermidis CIP 81.55; assay: MIC microdilution (Table I-1); type: cell-based, Staphylococcus epidermidis
Experimental: as §2

[15] = test system: S. epidermidis ATCC 12228; assay: MIC microdilution (Table I-1); type: cell-based, Staphylococcus epidermidis
Experimental: as §2

[16] = test system: 29 bacterial strains belonging to 17 different species; assay: Intrinsic antibacterial activity, MIC on the bacterial panel; type: cell-based; settings: result in words
Experimental: as §2

[17] = test system: S. aureus ATCC 25923; assay: MIC microdilution (Table I-1); type: cell-based; settings: Staphylococcus aureus, ATCC25923, read after 18 hours
Experimental: as §2

[18] = test system: Serratia marcescens CIP 103551; assay: MIC microdilution (Table I-1); type: cell-based; settings: CIP103551, read after 18 hours
Experimental: as §2

[19] = test system: Escherichia coli ATCC 25922; assay: MIC microdilution (Table I-1); type: cell-based; settings: ATCC25922, read after 18 hours
Experimental: as §2

[20] = test system: Bacillus subtilis CIP 5262; assay: MIC microdilution (Table I-1); type: cell-based
Experimental: as §2

[21] = test system: S. pyogenes (group A) CIP 104226; assay: MIC microdilution (Table I-1); type: cell-based
Experimental: as §2

[22] = test system: E. faecium CIP 54.32; assay: MIC microdilution (Table I-1); type: cell-based
Experimental: as §2

[23] = test system: S. agalactiae (group B) ATCC 12400; assay: MIC microdilution (Table I-1); type: cell-based
Experimental: as §2

[24] = test system: Enterobacter cloacae ATCC 13047; assay: MIC microdilution (Table I-1); type: cell-based; settings: ATCC13047, read after 18 hours
Experimental: as §2

[25] = test system: E. faecalis ATCC 29212; assay: MIC microdilution (Table I-1); type: cell-based
Experimental: as §2

[26] = test system: Pseudomonas aeruginosa CIP 5933; assay: MIC microdilution (Table I-1); type: cell-based; settings: CIP5933, read after 18 hours
Experimental: as §2

[27] = test system: Haemophilus influenzae ATCC 49766; assay: MIC microdilution (Table I-1); type: cell-based; settings: Haemophilus influenzae, ATCC49766, 18 h
Experimental: as §2

[28] = test system: S. pneumoniae ATCC 49619; assay: MIC microdilution (Table I-1); type: cell-based; settings: Streptococcus pneumoniae, ATCC49619, read after 18 hours
Experimental: as §2

[29] = test system: Klebsiella pneumoniae ATCC 35657; assay: MIC microdilution (Table I-1); type: cell-based
Experimental: as §2

[30] = test system: S. mitis CIP 103335; assay: MIC microdilution (Table I-1); type: cell-based
Experimental: as §2

[31] = test system: Acinetobacter baumanii ATCC 19606; assay: MIC microdilution (Table I-1); type: cell-based; settings: Acinetobacter baumannii, ATCC19606, read after 18 hours
Experimental: as §2

[32] = test system: Listeria innocua CIP 80.11; assay: MIC microdilution (Table I-1); type: cell-based
Experimental: as §2

[33] = test system: S. pneumoniae ATCC 6303; assay: MIC microdilution (Table I-1); type: cell-based, Streptococcus pneumoniae
Experimental: as §2

[34] = Staphylococcus aureus, read-out: MIC

## O=C(C(=O)N1CCNCC1c1c[nH]c2ccc(Br)cc12)c1c[nH]c2ccc(Br)cc12 (stereo not shown) [Compound 7, 1-(5-bromo-1H-indol-3-yl)-2-(2-(5-bromo-1H-indol-3-yl)piperazin-1-yl)ethane-1,2-dione hydrochloride]
[1]
  inhibition at 1 µM: 0%
  inhibition at 10 µM: 4 ± 11%
[2]
  inhibition at 1 µM: 0%
  inhibition at 10 µM: 0%
[3]
  inhibition at 1 µM: 0%
  inhibition at 10 µM: 22 ± 7%

## CC(C)(C)OC(=O)NCC(NC(=O)C(F)(F)F)c1c[nH]c2ccc(Br)cc12 (stereo not shown) [Compound 13, tert-Butyl(2-(5-bromo-1H-indol-3-yl)-2-(2,2,2-trifluoroacetamido)ethyl)carbamate]
[4]; Staphylococcus aureus, ATCC9144, read after 18 hours, read-out: MIC
  MIC: > 128 µg/mL
[5]; [34]
  MIC: > 128 µg/mL
[6]; [34]
  MIC: > 128 µg/mL
[7]; Staphylococcus aureus, ATCC29213, read after 18 hours, read-out: MIC
  MIC: 128 µg/mL (≈ 284 µM)
[8]; Staphylococcus aureus, CIP103428, read after 18 hours, read-out: MIC
  MIC: 64 µg/mL (≈ 142 µM)
[9]; Staphylococcus aureus, CIP65, read after 18 hours, read-out: MIC
  MIC: > 128 µg/mL
[10]; Staphylococcus aureus, ATCC6538, read after 18 hours, read-out: MIC
  MIC: 64 µg/mL (≈ 142 µM)
[11]; [34]
  MIC: > 128 µg/mL
[12]; Staphylococcus aureus, SA1199B, 18 h
  MIC: 64 µg/mL (≈ 142 µM)
[13]; Staphylococcus epidermidis, CIP103627, read after 18 hours, read-out: MIC
  MIC: > 128 µg/mL
[14]; Staphylococcus epidermidis, CIP81, read after 18 hours, read-out: MIC
  MIC: > 128 µg/mL
[15]; Staphylococcus epidermidis, ATCC12228, read after 18 hours, read-out: MIC
  MIC: > 128 µg/mL
[16]
  intrinsic antibacterial activity: lack of intrinsic antibacterial activity
[17]
  MIC: > 128 µg/mL
[18]
  MIC: > 128 µg/mL
[19]
  MIC: > 128 µg/mL
[20]; CIP5262, read after 18 hours, read-out: MIC
  MIC: 128 µg/mL (≈ 284 µM)
[21]; Streptococcus pyogenes, CIP104226, read after 18 hours, read-out: MIC
  MIC: 128 µg/mL (≈ 284 µM)
[22]; Enterococcus faecium, CIP54, read after 18 hours, read-out: MIC
  MIC: > 128 µg/mL
[23]; Streptococcus agalactiae, ATCC12400, read after 18 hours, read-out: MIC
  MIC: 128 µg/mL (≈ 284 µM)
[24]
  MIC: > 128 µg/mL
[25]; Enterococcus faecalis, ATCC29212, read after 18 hours, read-out: MIC
  MIC: > 128 µg/mL
[26]
  MIC: > 128 µg/mL
[27]
  MIC: > 128 µg/mL
[28]
  MIC: 128 µg/mL (≈ 284 µM)
[29]; ATCC35657, read after 18 hours, read-out: MIC
  MIC: > 128 µg/mL
[30]; Streptococcus mitis, CIP103335, read after 18 hours, read-out: MIC
  MIC: > 128 µg/mL
[31]
  MIC: > 128 µg/mL
[32]; CIP80, read after 18 hours, read-out: MIC
  MIC: > 128 µg/mL
[33]; Streptococcus pneumoniae, ATCC6303, read after 18 hours, read-out: MIC
  MIC: 128 µg/mL (≈ 284 µM)

## tert-Butyl(2-(4-bromo)benzamido-2-(5-bromo-1H-indol-3-yl)ethyl)carbamate [Compound 12a]
[4]; read after 18 hours
  MIC: >32 µg/mL
[5]
  MIC: >32 µg/mL
[6]
  MIC: >32 µg/mL
[7]; read after 18 hours
  MIC: >32 µg/mL
[8]; read after 18 hours
  MIC: >32 µg/mL
[9]; read after 18 hours
  MIC: >32 µg/mL
[10]; read after 18 hours
  MIC: >32 µg/mL
[11]
  MIC: >32 µg/mL
[12]; S. aureus SA-1199B, read after 18 hours
  MIC: >32 µg/mL
[13]; read after 18 hours
  MIC: >32 µg/mL
[14]; read after 18 hours
  MIC: >32 µg/mL
[15]; read after 18 hours
  MIC: >32 µg/mL
[16]
  intrinsic antibacterial activity: lack of intrinsic antibacterial activity
[20]; read after 18 hours
  MIC: >128 µg/mL
[21]; read after 18 hours
  MIC: >128 µg/mL
[22]; read after 18 hours
  MIC: >128 µg/mL
[23]; read after 18 hours
  MIC: 64 µg/mL
[25]; read after 18 hours
  MIC: >128 µg/mL
[29]; read after 18 hours
  MIC: 64 µg/mL
[30]; read after 18 hours
  MIC: >128 µg/mL
[32]; read after 18 hours
  MIC: >128 µg/mL
[33]; read after 18 hours
  MIC: 128 µg/mL
